Reference: PMC8347512, “Synthesis and Biological Assessment of 4,1-Benzothiazepines with Neuroprotective Activity on the Ca^2+ Overload for the Treatment of Neurodegenerative Diseases and Stroke” (Molecules, 2021)
Like-named read-outs stand apart in the source and are kept apart here.

Legend:
[1] = tested on: VGCC; experiment: Blockade of 70 mM K+-evoked cytosolic Ca2+ elevation (Fluo-4/AM) in SH-SY5Y cells; assay type: cell-based; conditions: for Decrease of K+-evoked Ca2+ signaling compared with nifedipine: compounds 10 μM, nifedipine 10 μM
Procedure: (§1) The neuroblastoma SH-SY5Y cell line was obtained from the American Type Culture Collection (ATCC-CRL-2266), maintained and cultured in a 1:1 mixture of MEM and F12 media with 10% of fetal bovine serum (FBS), according to procedures previously described. For fluorescence-based [Ca^2+]c measurements, SH-SY5Y cells were seeded in clear-bottomed, 96-well black plates at a density of 40,000 cells/well. For viability assays, SH-SY5Y cells were seeded in 48-well plates at a density of 70,000 cells/well following the procedure recently reported. Rat cortical embryonic neurons were prepared from 19-day-old embryos directly seeded in the plate well treated with poly-D-lysine in neurobasal medium (Gibco 21103, Madrid, Spain) supplemented with 1% of L-glutamine (Sigma, G6392), 0.5% of penicillin/streptomycin and 0.1% of gentamincine. In fluorescence-based [Ca^2+]c measurement, neurons were seed at clear-bottomed, 96-well black plates at a density of 30,000 cells/well. For viability assays, the rat cortical neurons were also seeded in 48-well plates at a density of 40,000 cells/well. All the biological assays were conducted under sterile conditions.
(§2) To assess the blocking effect of compounds on the VGCC, we used SH-SY5Y cells charged with the Ca^2+-sensitive fluorescent dye Fluo-4/AM at 10 μM in Krebs-HEPES buffer, following a protocol recently described. Compounds were incubated at the desired concentrations (1, 3, 10, and 30 μM). The Ca^2+ entry was favored by addition of K^+ 70 mM to the extracellular medium. To evaluate the blocking effect of compounds on NMDA receptors, we have followed a protocol recently reported by our research group. Rat cortical neurons were charged with Fluo-4/AM at 3 μM in Krebs-HEPES buffer and compounds incubated at same concentrations than before. To stimulate Ca^2+ entry through the NMDA-sensitive glutamate receptors, NMDA was applied at 10 μM. In both cases, fluorescence oscillations as result of the [Ca^2+]c increases were real-time monitored in a multi-well fluorescence plate reader (FluoStar Optima, BMG, Germany), with excitation and emission wavelengths of 485 and 520 nm, respectively. Data were calculated as fluorescence increase (ΔF), according to the formula: ΔF=Fx−Fo /Fmax−Fmin where Fx is the maximum fluorescence obtained after Ca^2+ entry stimulation, F0 is the averaged fluorescence before, Fmax is the maximum fluorescence of the well obtained by treating cells with 5% Triton X-100, and the Fmin is the minimum fluorescence of well obtained by adding MnCl2 1 M to the previously Triton-lysed cells. The ΔF data were normalized respect to the control (ΔFc). Data are presented as percentage of blockade (100% ΔF) at the concentration of 10 μM, or as IC50, i.e., the concentration of compound capable of halving the ΔFc (%ΔF = 50).

[2] = tested on: NMDA receptors; experiment: Blockade of NMDA-evoked cytosolic Ca2+ elevation (Fluo-4/AM) in rat cortical neurons; assay type: cell-based
Procedure: as §1
as §2, with “To evaluate the blocking effect of compounds on NMDA receptors, we have followed a protocol recently reported by our research group.” left out, “(ΔFc).” for “(ΔFc). Data are presented as percentage of blockade (100% ΔF) at the concentration of 10 μM, or as IC50, i.e., the concentration of compound capable of halving the ΔFc (%ΔF = 50).”

[3] = tested on: rat cortical neurons; experiment: Per se toxicity, MTT reduction, rat cortical neurons; assay type: cell-based; conditions: 48 h
Procedure: as §1
The per se toxicity of the new synthetized compounds was assessed in both cell cultures by the method of MTT reduction. After 24 h of seeding, SH-SY5Y cells were preincubated with compounds at different concentrations (1, 3, 10, and 30 μM) for 24 h. Afterwards, MEM/F12 medium was replaced by one fresh with 1% FBS with the compounds at the same concentration. The viability of cultures was measured 20 h later, following a procedure recently described. In the case of rat cortical neurons, 7 days after seeding, compounds were added to the wells to reach a final concentration of 1, 3, 10, and 30 μM. Forty-eight hours later, neuron viability was measure by the same procedure as the one described for SH-SY5Y cells.

[4] = tested on: SH-SY5Y cells; experiment: Neuroprotection against rotenone/oligomycin A (R/O), MTT, SH-SY5Y cells; assay type: cell-based; conditions: R/O 30/10 μM, compounds 10 μM
Procedure: as §1
(§3) The effect of compounds on the SH-SY5Y cells and rat cortical neurons viability compromised of different toxics was also evaluated by method of MTT reduction. Twenty-four hours after seeding, SH-SY5Y cells were preincubated with compounds at the concentration of 10 μM for 24 h. Afterwards, MEM/F12 medium was replaced by one fresh with 1% FBS, compounds at the same concentration, and rotenone/oligomycin A administered to media at the concentration of 30/10 μM, respectively. The cultures’ viability was measured 20 h later, following the MTT procedure recently described. As reference neuroprotective compound, melatonin 10 nM was selected. In the case of the rat cortical neurons, 7 days after seeding in 48-well plates, neurons were preincubated adding the compounds at a final concentration of 10 μM for 24 h. Then, toxic stimuli of 50 µM of glutamate was added to the wells. After 20 h, cell viability was measured by the MTT procedure. Here, the reference protective compound used was memantine (30 nM).

[5] = tested on: rat cortical neurons; experiment: Neuroprotection against glutamate 50 μM, MTT, rat cortical neurons; assay type: cell-based; conditions: compounds 10 μM
Procedure: as §1, §3

[6] = Blood-brain barrier permeation assay (PAMPA), porcine brain lipid; assay type: in vitro ADME; conditions: read-out: Pe, in vitro permeability (PAMPA-BBB)
Procedure: The parallel artificial membrane permeation assay (PAMPA) was used to predict the capacity of compounds to cross the blood–brain barrier (BBB) by passive diffusion, in a similar manner as previously described. Compounds were dissolved in 10 mM phosphate-buffered saline (PBS) buffer (pH 7.4) to the concentration of 100 µM. The filter membrane of the donor 96-well plate (Multiscreen IP sterile clear plate PDVF membrane, pore size […]) was impregnated with 4 µL of porcine brain lipid (PBL) (Avanti Polar Lipids, Inc., Alabaster, AL, USA) in dodecane (20 mg/mL), and after 5 min, 180 µL of each compound solution was added. The acceptor 96-well plate (Multiscreen, Millipore Corp. Burlington, MA, USA) was filled with 180 µL of PBS and 1% of DMSO. Finally, the donor filter plate was carefully put on the acceptor plate to form a “sandwich”, which was left undisturbed for 4 h at rt. After incubation, an UV plate reader determined the concentration of compounds in both acceptor and donor wells (150 µL/well) as the maximum absorption wavelength of each compound. Concentration of the compounds in the donor and acceptor well, and equilibrium concentration were calculated from the standard curve and expressed as the permeability (Pe), according to the following formula: logPe=logC×−ln1−drugacceptor/drugequilibrium whereC=Vdonor×Vaceptor/Vdonor+Vaceptor×Area×Time)
Results are expressed as mean ± SEM of three different experiments in duplicate.

[7] = compounds 1 to 30 μM, Fluo-4/AM, read-out: IC50, concentration halving the 70 mM K+-evoked Ca2+ elevation
[8] = rat cortical embryonic neurons, NMDA 10 μM, compounds 1 to 30 μM; read-out: IC50, NMDA-evoked [Ca2+]c elevation
[9] = porcine brain lipid, pH 7.4, 4 h, rt, Pe ≥ 4 indicates passive BBB crossing

SMILES | IC50 [1, 7] [µM] | IC50 [2, 8] [µM] | melting point [°C] | Effect on cell viability of rat cortical neurons at 30 μM [3] | further results
O=C1CSC(c2ccccn2)c2cc(Cl)ccc2N1 (stereo not shown) [compound 17, 7-Chloro-5-(pyridin-2-yl)-3,5-dihydro-4,1-benzothiazepin-2-(1H)-one] | 24.7 | > 30 | 215 to 217 |  | 
CN(C)c1ccc2c(c1)C(c1ccc(F)cc1)SCC(=O)N2 (stereo not shown) [compound 28, 7-Dimethylamino-5-(4′-fluorophenyl)-3,5-dihydro-4,1-benzothiazepin-2-(1H)-one] | 19.5 | > 30 | 219 to 222 | slightly reduced cell viability in a significant manner | Protection against R/O-induced oxidative stress (in words) [4]: clear trend to protect against oxidative stress
COc1ccccc1C1SCC(=O)Nc2ccc(N(C)C)cc21 (stereo not shown) [compound 27, 7-Dimethylamino-5-(2′-methoxyphenyl)-3,5-dihydro-4,1-benzothiazepin-2-(1H)-one] |  | 18.5 | 233 to 236 | slightly reduced cell viability in a significant manner | IC50 ([1]; read-out: IC50, concentration halving the 70 mM K+-evoked Ca2+ elevation, compounds 1 to 30 μM, Fluo-4/AM): 29.3 µM; Mitigation of the NMDA-elicited Ca2+ increase compared with memantine ([2]; rat cortical neurons, compounds 10 μM, memantine 10 μM): noticeable mitigation of the NMDA-elicited Ca^2+ increase, even higher than that exerted by the reference compound memantine; Protection against R/O-induced oxidative stress (in words) [4]: clear trend to protect against oxidative stress
O=C1CSC(c2ccc(F)cc2)c2ccccc2N1 (stereo not shown) [compound 32, 5-(4′-Fluorophenyl)-3,5-dihydro-4,1-benzothiazepin-2-(1H)-one] | 9.2 | > 30 | 251 to 254 |  | Decrease of K+-evoked Ca2+ signaling compared with nifedipine [1]: in a similar manner or even better than the reference compound nifedipine; Protection against glutamate-elicited neurotoxicity (in words) [5]: statistically significant dissipation of the glutamate-elicited neurotoxicity; Papp at 4 h, 100 µM [6, 9]: < 4 ×10⁻⁶ cm/s
COc1ccccc1C1SCC(=O)Nc2ccccc21 (stereo not shown) [compound 33, 5-(2′-Methoxyphenyl)-3,5-dihydro-4,1-benzothiazepin-2-(1H)-one] | > 30 | > 30 | 216 to 218 | slightly reduced cell viability in a significant manner | Protection against glutamate-elicited neurotoxicity (in words) [5]: statistically significant dissipation of the glutamate-elicited neurotoxicity
COC(=O)C1=C(C)NC(C)=C(C(=O)OC)C1c1ccccc1[N+](=O)[O-] [Nifedipine, nifedipine, reference compound] | 15 |  |  |  | 
O=C1CSC(c2cccnc2)c2cc(Cl)ccc2N1 (stereo not shown) [compound 16, 7-Chloro-5-(pyridin-3-yl)-3,5-dihydro-4,1-benzothiazepin-2-(1H)-one] | > 30 | > 30 | 224 to 226 |  | 
O=C1CSC(c2ccc([N+](=O)[O-])cc2)c2cc(Cl)ccc2N1 (stereo not shown) [compound 14, 7-Chloro-5-(4′-nitrophenyl)-3,5-dihydro-4,1-benzothiazepin-2-(1H)-one] | 29.9 | > 30 | 289 to 291 |  | Papp at 4 h, 100 µM [6, 9]: < 4 ×10⁻⁶ cm/s
CC12CC3CC(C)(C1)CC(N)(C3)C2 [Memantine, memantine, reference compound] |  |  |  |  | IC50 ([2]; read-out: IC50, NMDA-evoked [Ca2+]c elevation; rat cortical embryonic neurons, NMDA 10 μM, compounds 1 to 30 μM): 17 µM
O=C1CSC(c2ccncc2)c2cc(Cl)ccc2N1 (stereo not shown) [compound 15, 7-Chloro-5-(pyridin-4-yl)-3,5-dihydro-4,1-benzothiazepin-2-(1H)-one] | 20 | > 30 | 224 to 226 |  | 
O=C1CSC(c2ccncc2Cl)c2cc(Cl)ccc2N1 (stereo not shown) [compound 18, 7-Chloro-5-(3′-chloropyridin-4-yl)-3,5-dihydro-4,1-benzothiazepin-2-(1H)-one] | 11.5 | 28.3 | 226 to 229 | slightly reduced cell viability in a significant manner | Decrease of K+-evoked Ca2+ signaling compared with nifedipine [1]: in a similar manner or even better than the reference compound nifedipine; Papp at 4 h, 100 µM ([6]; pH 7.4, threshold value of 40 nm/s): > 4 ×10⁻⁶ cm/s
CN(C)c1ccc2c(c1)C(c1ccccc1Cl)SCC(=O)N2 (stereo not shown) [compound 26, 5-(2′-Chlorophenyl)-7-dimethylamino-3,5-dihydro-4,1-benzothiazepin-2-(1H)-one] | 25.4 | > 30 | 178 to 181 | slightly reduced cell viability in a significant manner | Protection against R/O-induced oxidative stress (in words) [4]: clear trend to protect against oxidative stress; Papp at 4 h, 100 µM [6, 9]: < 4 ×10⁻⁶ cm/s
